The text below walks through data of PubChem BioAssay AID624491 (Broad Institute, 2012).

The experiment relates to D54 ERlucT glycosylation luciferase reporter, luminescence, 24 h. Briefly: N-linked glycosylation inhibitors, luciferase reporter, dose response, D54 ERlucT cells, luminescence, cherry-picks (AID 624491).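 Also: signal gain reflects blocked N-linked glycosylation of a luciferase reporter; actives raise luciferase signal so AC26 marks activators of the reporter.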

Consider `COc1ccc(CNCC(=O)Nc2ccccc2-n2cccc2)cc1`, for which the AC26 is 922 nM.

On to `C/C(=N/NC(=O)c1cccs1)c1ccc(NC(=O)COc2ccc(Cl)cc2Cl)cc1`, for which the AC26 was 6270 nM.

On to `COCCCNc1nnc(Cc2ccc(Cl)cc2)c(=O)[nH]1`, for which the AC26 was 1050 nM.

For `O=C(Nc1ccc(S(=O)(=O)N2CCOCC2)cc1)c1cc(-c2cc(Cl)ccc2O)n[nH]1`, the AC26 is 1260 nM.

`O=C(COc1ccccc1CNCc1ccccc1)Nc1ccccc1`: the AC26 was 850 nM.

For `COc1ccc(/C=C/C(=O)c2ccc(Cl)s2)cc1O`, the AC26 was 4730 nM.

With `COc1cc(C(=O)c2cocc2C(=O)c2ccc3c(c2)OCO3)cc(OC)c1OC`, the AC26 is 111 nM.

Take `Cc1cccc(Nc2nc(N)nc(-c3oc4ccccc4c3C)n2)c1`: the AC26 was 7050 nM.

For the compound `CCc1ccc(C2c3[nH]c4ccccc4c3CCN2C(=O)c2ccc(=O)n(C)n2)cc1` (stereo unspecified), the AC26 is 1330 nM.

`COc1cc(OC)cc(C(=O)NCC(=O)Nc2ccc(-c3ccccc3)cc2)c1`: the AC26 was 8830 nM.

Turning to `CC(=O)NC(c1cccc(F)c1)c1nc(-c2ccccc2C)cs1` (stereo unspecified), the AC26 is 502 nM.

Consider `C=CCn1c(SCc2c(C)noc2C)nc2ccccc2c1=O`, for which the AC26 was 163 nM.

`CCn1ncc(C2=NOC(C(=O)NCc3ccccc3)C2)c1C` (stereo unspecified): the AC26 is 413 nM.

Turning to `COc1cc2[nH]c(C(=O)Nc3ccc(F)cc3)cc2c(OC)c1OC`, the AC26 is 742 nM.

For the compound `CCOc1ccc2nc(NCCNC(=O)Nc3cccc(C)c3)c(C#N)cc2c1`, the AC26 is 4010 nM.

Regarding `CC(=O)Nc1cccc(-c2ccnc3c2CC(C(=O)NCc2cccc(Cl)c2)O3)c1` (stereo unspecified), the AC26 is 9220 nM.

`CCOC(=O)c1c(NC(=O)c2cc3n(n2)C(C(F)(F)F)CC(c2cccs2)N3)sc(C)c1C` (stereo unspecified): the AC26 was 5140 nM.

`CCOC(=O)c1c(CN(C)C)n(C)c2c(O)c(N=NC(N)=O)c3ccc(Br)cc3c12`: the AC26 was 242 nM.

Take `CC(C)CCN(C(=O)Cc1ccc(Cl)c(Cl)c1)c1c(N)n(Cc2ccccc2)c(=O)[nH]c1=O`: the AC26 was 2080 nM.

As for `COc1cc2c(cc1OC)CN(c1ccc(C(F)(F)F)cn1)CC2`, the AC26 is 4710 nM.

On to `COc1cccc(C(N)c2nc(-c3csc4ccccc34)cs2)c1` (stereo unspecified), for which the AC26 was 3590 nM.

Regarding `Cc1cc(=O)oc2cc(NC(=O)c3cccc(S(C)(=O)=O)c3)ccc12`, the AC26 is 2310 nM.

`Cn1c(=O)[nH]c(=O)c2c1nc(N/N=C/c1cccnc1)n2Cc1ccc(Cl)cc1`: the AC26 was 1630 nM.

Regarding `Cn1nc(-c2ccc(Cl)cc2)c2cc(C(=O)NCCCN3CCOCC3)sc21`, the AC26 was 4330 nM.

In the case of `CCOc1ccccc1C1CC(=O)Nc2cc3c(cc21)OCO3` (stereo unspecified), the AC26 is 4370 nM.

Take `O=C1C=C(c2cccs2)C[C@H](c2ccccc2)[C@H]1n1nnc([N+](=O)[O-])n1`: the AC26 was 260 nM.

Take `COc1ccccc1C(=O)Nc1nnc(CCc2ccccc2)s1`: the AC26 is 3720 nM.

For the compound `c1ccc2sc(Sc3ncnc4sccc34)nc2c1`, the AC26 was 1480 nM.

For the compound `CN=C(SCC(=O)c1cccc(Cl)c1)c1c(O)n(C)c(=O)n(C)c1=O`, the AC26 was 2590 nM.

As for `Cc1ccc(OCCNC(=O)C(=O)NCc2ccco2)cc1`, the AC26 is 6100 nM.

Turning to `COc1cccc(C(NC(C)=O)c2nc(-c3ccccc3C)cs2)c1` (stereo unspecified), the AC26 was 774 nM.

As to `COc1ccc(C(=O)/C=C/c2ccc(OC(=O)c3cc(OC)c(OC)c(OC)c3)cc2)cc1`, the AC26 is 3740 nM.

In the case of `COc1cc2c(cc1OC)C(=O)N1[C@H]3c4ccccc4OC[C@@H]3[C@H](c3ccccc3)[C@]1(C)C(=O)N2`, the AC26 was 42.6 nM.

Consider `COc1ccc(Cl)cc1S(=O)(=O)Nc1ccc2c(c1)n(C)c(=O)n2C`, for which the AC26 was 1470 nM.

With `O=C(/C=C/c1c[nH]c2ccccc12)c1cccc2ccccc12`, the AC26 is 5410 nM.

For `c1ccc(-c2nc(-n3ccnc3)nc(-n3ccnc3)n2)cc1`, the AC26 is 2780 nM.

On to `Cc1cccc2sc(NC(=O)c3cc(S(=O)(=O)N(C)C)ccc3N3CCCC3)nc12`, for which the AC26 was 157 nM.

For `O=C(CSc1nnc(-c2cc3ccccc3cc2O)n1Cc1ccco1)N1CCc2ccccc2C1`, the AC26 is 702 nM.

For the compound `C=CCn1cccc(/C=C/C(=O)c2ccc(C(C)(C)C)cc2)c1=S`, the AC26 is 1290 nM.

In the case of `CN(C)CCOc1nc(-c2ccccc2)nc2c1oc1ccccc12`, the AC26 is 2700 nM.

Regarding `Cn1c(=O)cc2c3c(c(N4CCCCC4)ccc31)C(=O)c1ccccc1-2`, the AC26 was 4360 nM.

Consider `c1ccc(CNc2nc(-c3ccccc3)nc3ccccc23)cc1`, for which the AC26 was 1570 nM.

Regarding `CN(C)c1ccc(CNC(=O)C2(C)Cc3c(-c4ccc5c(c4)OCO5)ccnc3O2)cc1` (stereo unspecified), the AC26 is 2630 nM.

Turning to `NC(=O)N=Nc1c2[nH]c3ccccc3nc-2c2ccccc12`, the AC26 was 1130 nM.

`COc1cc2c(c(OC)c1OC)-c1ccc(OC)c(=O)cc1[C@@H](N(C)CC#CCO)CC2`: the AC26 is 380 nM.

With `O=C(c1ccc(CS(=O)c2ccccc2Cl)o1)N1CCN(c2ccccn2)CC1` (stereo unspecified), the AC26 was 5990 nM.

`CCOc1cc(NC(=O)CCl)c(OCC)cc1NC(=O)CCl`: the AC26 was 1690 nM.

As for `CCOC(=O)c1[nH]c2c(c1-c1ccccc1)C(=O)CC(c1ccccc1)C2` (stereo unspecified), the AC26 was 1480 nM.

For the compound `COc1ccc2c(c1)OC[C@H]1[C@H]2N2C(=O)c3cc(Cl)ccc3NC(=O)[C@@]2(C)[C@H]1c1ccccc1`, the AC26 was 1250 nM.

In the case of `CCc1ccc(Oc2coc3cc(OCC(=O)Nc4cc(C)ccc4C)ccc3c2=O)cc1`, the AC26 is 4860 nM.

Take `CCc1ccc(N2C(=O)Nc3ccccc3C2(O)C(=O)N2CCN(c3ccccn3)CC2)cc1` (stereo unspecified): the AC26 is 625 nM.

`Cc1cccn2c(=O)c3cc(C(=O)NC4CCCC4)n(C)c3nc12`: the AC26 was 15100 nM.

On to `CC1(C(=O)Nc2ccc(Cl)cc2)Cc2c(-c3cccc(C(N)=O)c3)ccnc2O1` (stereo unspecified), for which the AC26 was 15400 nM.

In the case of `Cc1cc(C)cc(NC(=O)CCn2c(=O)c3cccn3c3ccccc32)c1`, the AC26 is 4950 nM.

As to `COc1ccc(C(=O)/C=C/c2ccccc2)c(O)c1`, the AC26 is 1520 nM.

Turning to `Cc1ccc(C(=O)N2CCN(Cc3ccccc3)CC2)cc1S(=O)(=O)N1CCOCC1`, the AC26 is 1670 nM.

On to `COc1ccccc1CCC(=O)Nc1ccc2c(c1)c(=O)n(C)n2-c1cccs1`, for which the AC26 was 124 nM.

On to `CN(C)c1ccc(C(C[N+](=O)[O-])c2c(N)n(C)c(=O)n(C)c2=O)c(F)c1C#N` (stereo unspecified), for which the AC26 is 3300 nM.

Turning to `CC1(C(=O)Nc2ccc3c(c2)OCO3)Cc2c(-c3ccc4c(c3)OCO4)ccnc2O1` (stereo unspecified), the AC26 was 7650 nM.

With `Cc1cc(C)c2c(N)c3cccc(C)c3nc2n1`, the AC26 is 478 nM.

For `COc1cc(C)cc(C(=O)C=Cc2ccccc2)c1O`, the AC26 is 4920 nM.

Turning to `COc1cc2c(cc1OC)C(c1cccs1)N(C(=O)c1cccc(S(=O)(=O)N(C)C)c1)CC2` (stereo unspecified), the AC26 is 1320 nM.

With `CCOC(=O)c1cnc2c(C)cc(C)cc2c1NCCCN1CCOCC1`, the AC26 was 3470 nM.

Consider `O=C(Nc1ccccc1O)c1ccc(NC(=O)C2CC2)cc1`, for which the AC26 was 4330 nM.

As for `Cc1[nH]nc2c1C(c1cccc(O)c1)C1=C(CC(C)(C)CC1=O)N2` (stereo unspecified), the AC26 is 1870 nM.

`C[C@H](CO)N1C[C@H](C)[C@@H](CN(C)S(=O)(=O)c2ccccc2)Oc2c(NC(=O)Cc3ccccc3)cccc2C1=O`: the AC26 is 3400 nM.

In the case of `O=C(C=Cc1cccc(O)c1)c1ccccc1O`, the AC26 was 3290 nM.

Turning to `CCOC(=O)c1[nH]c(C)c(C(=O)OCC(=O)NC(C)c2ccc(F)cc2)c1C` (stereo unspecified), the AC26 is 3150 nM.

Turning to `CC(C)(C)S(=O)(=O)N1C[C@H]2CC/C=C\C/C(c3ccccc3)=C\2[C@@H]1CCO`, the AC26 was 1030 nM.

Consider `O=C(Nc1ccc(Cl)cn1)c1cccc(F)c1`, for which the AC26 is 6980 nM.

For the compound `O=CC1=C(c2ccccc2)Oc2ccccc2O1`, the AC26 is 10300 nM.

Take `Cn1cnc([N+](=O)[O-])c1S(=O)(=O)Oc1ccccc1`: the AC26 was 1420 nM.

Consider `Cc1cc(C)cc(NC2=NC3(CCCCC3)N=C(N)N2)c1`, for which the AC26 is 545 nM.

As to `CC(=O)Nc1ccc(CNc2ncnc3ccc(-c4c(C)noc4C)cc23)cc1`, the AC26 is 290 nM.

For the compound `CCOc1cc(C)nc(NCc2ccccc2)n1`, the AC26 was 14300 nM.

Regarding `O=c1cc(-c2ccccc2)[nH]c2ccccc12`, the AC26 was 433 nM.

Consider `Cc1ccc(C(=O)N2CCC(C(=O)Nc3cccc([N+](=O)[O-])c3)CC2)cc1`, for which the AC26 was 804 nM.

Consider `C[C@@]12C(=O)Nc3cc(F)ccc3C(=O)N1[C@H]1c3ccccc3OC[C@@H]1[C@@H]2c1ccccc1`, for which the AC26 was 1870 nM.

Consider `NC(=O)CC(NC(=O)Cc1ccc(Cl)cc1)c1ccc(NC2CCCC2)c([N+](=O)[O-])c1` (stereo unspecified), for which the AC26 is 1840 nM.

As to `COC(=O)c1ccc(/C=C/C(=O)c2ccc(OC)c(OC)c2)cc1`, the AC26 was 4100 nM.

As to `Cc1ccc(Sc2c(CO)c(-c3ccccc3)nn2C)cc1`, the AC26 was 341 nM.

Turning to `CC(C)n1cc(NC(=O)c2cc(-c3ccccc3)on2)cn1`, the AC26 was 1230 nM.

In the case of `COc1ccc(C=CC(=O)c2c(OC)cc(OC)c(OC)c2O)cc1`, the AC26 is 4040 nM.

As for `COc1cc(-c2cc3nc(NCCOc4ccccc4)ccn3n2)cc(OC)c1OC`, the AC26 is 2350 nM.

With `O=C(CCl)Nc1cn(-c2ccccc2)nc1-c1ccc(F)cc1`, the AC26 is 3860 nM.

As for `Cn1c(C(=O)OCC(=O)NCc2ccc(F)cc2)cc2occc21`, the AC26 was 8970 nM.

Regarding `COc1ccc(Cl)cc1NC(=O)CN(C)CC(=O)Nc1ccccc1N1CCOCC1`, the AC26 was 658 nM.

As for `O=C(NCCCN1CCOCC1)c1cc(-c2cccs2)on1`, the AC26 was 3670 nM.

Consider `Clc1ccc(C2=Nn3c(nnc3-c3cc(-c4ccccc4)n[nH]3)SC2)cc1`, for which the AC26 is 5130 nM.

With `Cc1ccc(/C=N/NC(=O)c2sccc2OCc2ccc(F)cc2)cc1`, the AC26 was 2440 nM.

As for `Cn1cccc1/C=C1\SC(=Nc2ccccc2)NC1=O`, the AC26 is 1150 nM.

Regarding `OC1CCCN(Cc2ccc3ccc4cccc5ccc2c3c45)C1` (stereo unspecified), the AC26 was 4270 nM.

On to `CC(C)N(CC(=O)Nc1ccc(Cl)cc1C(F)(F)F)C(=O)CCl`, for which the AC26 was 14500 nM.

Consider `COc1ccc(Nc2cc(C)nc(-n3nc(C)cc3C)n2)cc1`, for which the AC26 is 193 nM.

Turning to `Cc1cc(NS(=O)(=O)c2ccc(NC(=O)COc3c(C)cc(Br)cc3C)cc2)no1`, the AC26 is 550 nM.

Turning to `COc1cccc(-c2nc(N3CCN(C)CC3)c3ccccc3n2)c1O`, the AC26 was 3610 nM.
